Test results reported in patent US20260138978A1, “POSITIVE ALLOSTERIC MODULATORS OF THE MUSCARINIC ACETYLCHOLINE RECEPTOR M1” (Vanderbilt University, priority 2022, published 2026).

What was measured:
human mAChRM1 [1] = target: T1, human mAChRM1 (Homo sapiens, UniProt P11229); test: mAChR M1 cell-based functional assay (calcium mobilization), agonist activity upon compound addition, Emax relative to acetylcholine maximum; details: for Agonist Activity Human M1 EC50 / EC50: calcium mobilization upon compound addition; for Emax: relative to the maximum for acetylcholine
T1 construct: host or cells: CHO-K1
T1 sequence (P11229 1-460): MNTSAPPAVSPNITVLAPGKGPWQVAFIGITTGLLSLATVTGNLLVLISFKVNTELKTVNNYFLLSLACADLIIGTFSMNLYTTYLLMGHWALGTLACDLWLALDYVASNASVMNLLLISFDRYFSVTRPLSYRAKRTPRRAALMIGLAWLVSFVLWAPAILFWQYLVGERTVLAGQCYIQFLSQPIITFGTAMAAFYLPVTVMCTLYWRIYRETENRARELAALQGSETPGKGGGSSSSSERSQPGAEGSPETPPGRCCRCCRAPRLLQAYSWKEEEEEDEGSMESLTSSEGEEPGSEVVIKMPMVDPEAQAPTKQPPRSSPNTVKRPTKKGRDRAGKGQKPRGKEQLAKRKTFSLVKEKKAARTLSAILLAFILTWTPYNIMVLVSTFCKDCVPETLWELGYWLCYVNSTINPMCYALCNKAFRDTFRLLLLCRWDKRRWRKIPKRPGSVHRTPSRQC
How it was run: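 CHO-K1 cells stably expressing human M1 were loaded with Fluo-4 AM for 50 min at 37 °C. Compound was added 4 s into a 300 s FDSS read at 1 Hz, over 11-point 1:3 dilution curves. Agonism was taken as a concentration-dependent rise in calcium fluorescence ratio, with Emax expressed relative to the acetylcholine maximum from four-parameter logistic fits.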

human mAChRM1 [2] = target: T1, human mAChRM1; test: mAChR M1 cell-based functional assay (calcium mobilization), positive allosteric modulator activity: increase in the EC20 acetylcholine response; details: for Emax: PAM mode; for EC50 / PAM Activity Human M1 EC50: increase in the EC20 acetylcholine response; for EC50: read-out: PAM Activity Human M1 EC50
How it was run: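 CHO-K1 cells stably expressing human M1, loaded with Fluo-4 AM; calcium flux recorded on FDSS at 1 Hz over 300 s following compound addition. PAM activity is the concentration-dependent increase of an EC20 acetylcholine response; EC50 and Emax from four-parameter logistic fits of 11-point, 1:3 concentration series.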

| Structure (SMILES) | Agonist Activity Human M1 EC50 (human mAChRM1 [1]) | Emax (human mAChRM1 [2]) [%] | EC50 (human mAChRM1 [2]) [nM] | PAM Activity Human M1 EC50 (human mAChRM1 [2]) | EC50 (human mAChRM1 [1]) [nM] | Emax (human mAChRM1 [1]) [%] |
| --- | --- | --- | --- | --- | --- | --- |
| Cc1cc(-c2cc(C(C)(C)O)c3nn(C)cc3c2)ccc1CN1Cc2ncccc2C1=O [Compound 35, 6-(4-(7-(2-hydroxypropan-2-yl)-2-methyl-2H-indazol-5-yl)-2-methylbenzyl)-6,7-dihydro-5H-pyrrolo[3,4-b]pyridin-5-one] | inactive | 68 | 958 | – | – | – |
| Cn1cc2cc(-c3ccc(CN4Cc5ncccc5C4=O)cc3)cc(C(C)(C)O)c2n1 [Compound 36, 6-(4-(7-(2-hydroxypropan-2-yl)-2-methyl-2H-indazol-5-yl)benzyl)-6,7-dihydro-5H-pyrrolo[3,4-b]pyridin-5-one] | inactive | 67 | 962 | – | – | – |
| CC(C)(O)c1cc(-c2cc(F)c(CN3Cc4ncccc4C3=O)c(F)c2)cc2cccnc12 [Compound 39, 6-(2,6-difluoro-4-(8-(2-hydroxypropan-2-yl)quinolin-6-yl)benzyl)-6,7-dihydro-5H-pyrrolo[3,4-b]pyridin-5-one] | – | 72 | 472 | – | ≥ 10000 | 8 |
| Cn1cc2cc(-c3cc(F)c(CN4Cc5ncccc5C4=O)c(Cl)c3)cc(C(C)(C)O)c2n1 [Compound 41, 6-(2-chloro-6-fluoro-4-(7-(2-hydroxypropan-2-yl)-2-methyl-2H-indazol-5-yl)benzyl)-6,7-dihydro-5H-pyrrolo[3,4-b]pyridin-5-one] | – | 67 | 422 | – | ≥ 10000 | 12 |
| CC(C)(O)c1ccc(-c2cc(F)c(CN3Cc4ncccc4C3=O)c(C(F)(F)F)c2)cc1 [Compound 44, 6-((3-fluoro-4′-(2-hydroxypropan-2-yl)-5-(trifluoromethyl)-[1,1′-biphenyl]-4-yl)methyl)-6,7-dihydro-5H-pyrrolo[3,4-b]pyridin-5-one] | inactive | 61 | 5680 | – | – | – |
| CC(C)(O)c1ccc(-c2cc(F)c(CN3Cc4ncccc4C3=O)c(Cl)c2)cc1 [Compound 45, 6-((3-chloro-5-fluoro-4′-(2-hydroxypropan-2-yl)-[1,1′-biphenyl]-4-yl)methyl)-6,7-dihydro-5H-pyrrolo[3,4-b]pyridin-5-one] | inactive | 66 | 1030 | – | – | – |
| CC(C)(O)c1ccc(-c2cc(Cl)c(CN3Cc4ncccc4C3=O)c(Cl)c2)cc1 [Compound 46, 6-((3,5-dichloro-4′-(2-hydroxypropan-2-yl)-[1,1′-biphenyl]-4-yl)methyl)-6,7-dihydro-5H-pyrrolo[3,4-b]pyridin-5-one] | inactive | 65 | 1440 | – | – | – |
| CC(C)(O)c1c(F)cc(-c2cc(F)c(CN3Cc4ncccc4C3=O)c(F)c2)cc1F [Compound 47, 6-((3,3′,5,5′-tetrafluoro-4′-(2-hydroxypropan-2-yl)-[1,1′-biphenyl]-4-yl)methyl)-6,7-dihydro-5H-pyrrolo[3,4-b]pyridin-5-one] | inactive | 34 | 1830 | – | – | – |
| CC(C)(O)c1cc(F)c(-c2cc(F)c(CN3Cc4ncccc4C3=O)c(F)c2)cc1F [Compound 48, 6-((2′,3,5,5′-tetrafluoro-4′-(2-hydroxypropan-2-yl)-[1,1′-biphenyl]-4-yl)methyl)-6,7-dihydro-5H-pyrrolo[3,4-b]pyridin-5-one] | inactive | – | – | inactive | – | – |
| CC(C)(O)c1ccc(-c2cc(F)c(CN3Cc4ncccc4C3=O)cc2F)cc1 [Compound 49, 6-((2,5-difluoro-4′-(2-hydroxypropan-2-yl)-[1,1′-biphenyl]-4-yl)methyl)-6,7-dihydro-5H-pyrrolo[3,4-b]pyridin-5-one] | inactive | 66 | 1200 | – | – | – |
| Cc1cc(-c2cc(C(C)(C)O)c3nn(C)cc3c2)cc(F)c1CN1Cc2ncccc2C1=O [Compound 50, 6-(2-fluoro-4-(7-(2-hydroxypropan-2-yl)-2-methyl-2H-indazol-5-yl)-6-methylbenzyl)-6,7-dihydro-5H-pyrrolo[3,4-b]pyridin-5-one] | inactive | 66 | 784 | – | – | – |
| Cc1cc(-c2ccc(C(C)(C)O)c3ncccc23)cc(F)c1CN1Cc2ncccc2C1=O [Compound 53, 6-(2-fluoro-4-(8-(2-hydroxypropan-2-yl)quinolin-5-yl)-6-methylbenzyl)-6,7-dihydro-5H-pyrrolo[3,4-b]pyridin-5-one] | inactive | 53 | 5870 | – | – | – |
| CCC(O)(CC)c1ccc(-c2cc(F)c(CN3Cc4ncccc4C3=O)c(F)c2)c2cn(C)nc12 [Compound 54, 6-(2,6-difluoro-4-(7-(3-hydroxypentan-3-yl)-2-methyl-2H-indazol-4-yl)benzyl)-6,7-dihydro-5H-pyrrolo[3,4-b]pyridin-5-one] | inactive | 66 | 2290 | – | – | – |
| CCC(O)(CC)c1ccc(-c2cc(C)c(CN3Cc4ncccc4C3=O)c(F)c2)c2cn(C)nc12 [Compound 55, 6-(2-fluoro-4-(7-(3-hydroxypentan-3-yl)-2-methyl-2H-indazol-4-yl)-6-methylbenzyl)-6,7-dihydro-5H-pyrrolo[3,4-b]pyridin-5-one] | inactive | 67 | 2720 | – | – | – |
| Cn1cc2c(-c3ccc(CN4Cc5ncccc5C4=O)c(F)c3)ccc(C(C)(C)O)c2n1 [Compound 57, 6-(2-fluoro-4-(7-(2-hydroxypropan-2-yl)-2-methyl-2H-indazol-4-yl)benzyl)-6,7-dihydro-5H-pyrrolo[3,4-b]pyridin-5-one] | – | 69 | 181 | – | 5070 | 11 |
| Cc1cc(-c2ccc(C(C)(C)O)c3nn(C)cc23)ccc1CN1Cc2ncccc2C1=O [Compound 58, 6-(4-(7-(2-hydroxypropan-2-yl)-2-methyl-2H-indazol-4-yl)-2-methylbenzyl)-6,7-dihydro-5H-pyrrolo[3,4-b]pyridin-5-one] | – | 71 | 278 | – | ≥ 10000 | 23 |

Next, values leading:

| Agonist Activity Human M1 EC50 (human mAChRM1 [1]) | Emax (human mAChRM1 [2]) [%] | EC50 (human mAChRM1 [2]) [nM] | PAM Activity Human M1 EC50 (human mAChRM1 [2]) | EC50 (human mAChRM1 [1]) [nM] | Emax (human mAChRM1 [1]) [%] | Structure (SMILES) |
| --- | --- | --- | --- | --- | --- | --- |
| inactive | – | – | inactive | – | – | CC(C)(O)c1ccc(-c2cc(F)c(CN3Cc4ncccc4C3=O)c(F)c2)c2ncccc12 [Compound 37, 6-(2,6-difluoro-4-(5-(2-hydroxypropan-2-yl)quinolin-8-yl)benzyl)-6,7-dihydro-5H-pyrrolo[3,4-b]pyridin-5-one] |
| inactive | 59 | 4310 | – | – | – | CC(C)(O)c1ccc(-c2cc(F)c(CN3Cc4ncccc4C3=O)c(F)c2)c2cccnc12 [Compound 38, 6-(2,6-difluoro-4-(8-(2-hydroxypropan-2-yl)quinolin-5-yl)benzyl)-6,7-dihydro-5H-pyrrolo[3,4-b]pyridin-5-one] |
| inactive | 73 | 2190 | – | – | – | Cn1cc(-c2cc(F)c(CN3Cc4ncccc4C3=O)c(F)c2)c2ccc(C(C)(C)O)cc21 [Compound 40, 6-(2,6-difluoro-4-(6-(2-hydroxypropan-2-yl)-1-methyl-1H-indol-3-yl)benzyl)-6,7-dihydro-5H-pyrrolo[3,4-b]pyridin-5-one] |
| inactive | 48 | ≥ 10000 | – | – | – | CC(C)(O)c1cncc(-c2cc(F)c(CN3Cc4ncccc4C3=O)c(F)c2)c1 [Compound 42, 6-(2,6-difluoro-4-(5-(2-hydroxypropan-2-yl)pyridin-3-yl)benzyl)-6,7-dihydro-5H-pyrrolo[3,4-b]pyridin-5-one] |
| inactive | 64 | 3210 | – | – | – | CC(C)(O)c1cccc(-c2cc(F)c(CN3Cc4ncccc4C3=O)c(F)c2)c1 [Compound 43, 6-((3,5-difluoro-3′-(2-hydroxypropan-2-yl)-[1,1′-biphenyl]-4-yl)methyl)-6,7-dihydro-5H-pyrrolo[3,4-b]pyridin-5-one] |
| inactive | 30 | ≥ 10000 | – | – | – | Cn1nc2cc(C(C)(C)O)ccc2c1-c1cc(F)c(CN2Cc3ncccc3C2=O)c(F)c1 [Compound 51] |
| inactive | 58 | 9570 | – | – | – | Cn1nc(-c2cc(F)c(CN3Cc4ncccc4C3=O)c(F)c2)c2ccc(C(C)(C)O)cc21 [Compound 52, 6-(2,6-difluoro-4-(6-(2-hydroxypropan-2-yl)-1-methyl-1H-indazol-3-yl)benzyl)-6,7-dihydro-5H-pyrrolo[3,4-b]pyridin-5-one] |
| inactive | 50 | 5160 | – | – | – | Cc1c(C(C)(C)O)ccc(-c2cc(F)c(CN3Cc4ncccc4C3=O)c(F)c2)c1F [Compound 56, 6-((2′,3,5-trifluoro-4′-(2-hydroxypropan-2-yl)-3′-methyl-[1,1′-biphenyl]-4-yl)methyl)-6,7-dihydro-5H-pyrrolo[3,4-b]pyridin-5-one] |
